Source: US10682351B2, “Methods of administering elagolix” (AbbVie Inc., priority 2015, dated 2020)
Like-named read-outs stand apart in the source and are kept apart here.

Legend:
[1] = in vivo
Description: This was an open-label, two-period, sequential study conducted in 12 females chosen according to the protocol selection criteria. Each subject received elagolix 150 mg single dose with and without rifampin 600 mg q.d. for 10 days. Intensive blood samples for elagolix assay were collected up to 36 hours after elagolix dosing in both periods. Safety data, including adverse event monitoring, vital signs, ECGs, and laboratory tests were collected during the study.
Values for elagolix maximum concentration (Cmax) and area-under-the-curve (AUC) were estimated using noncompartmental methods. Analysis of variance was performed to compare elagolix Cmax and AUC with and without rifampin.

[2] = Safety in elagolix/ketoconazole interaction study (adverse events, vital signs, ECGs, laboratory tests); type: in vivo, human
Description: (§1) Each subject received elagolix 150 mg single dose alone and on the 4th day of a six-day regimen of ketoconazole 400 mg q.d.
Adverse event rates across treatment periods were 0% (elagolix alone), 82% (ketoconazole alone), and 36% (co-administration). The most common adverse event was nausea, which was noted as probably related to ketoconazole alone. […] Mean elagolix plasma concentration—time profiles for elagolix administered with ketoconazole, versus elagolix administered alone, are shown in FIG. 2.

[3] = Pharmacokinetic interaction between elagolix and ketoconazole (open-label, two-period, sequential study); type: in vivo, human; details: elagolix 150 mg single dose on 4th day of six-day ketoconazole 400 mg q.d. vs elagolix alone; healthy premenopausal females
Description: In a second embodiment of this invention, it was discovered that ketoconazole increased elagolix exposure levels.
as §1
Analysis of variance was performed to compare the pharmacokinetic parameters of elagolix with and without ketoconazole.

Compound	Vital signs, ECG or laboratory measurements [1]	Vital signs, ECG or laboratory measurements ([2]; in vivo)	Elagolix AUC increase [3] [fold]	Elagolix Cmax increase [3] [fold]	Adverse event rate ([2]; drug alone treatment period, elagolix 150 mg single dose or ketoconazole 400 mg q.d., healthy premenopausal females) [%]
COc1cccc(-c2c(C)n(Cc3c(F)cccc3C(F)(F)F)c(=O)n(C[C@H](NCCCC(=O)[O-])c3ccccc3)c2=O)c1F.[Na+] [Elagolix, 4-((R)-2-[5-(2-fluoro-3-methoxy-phenyl)-3-(2-fluoro-6-trifluoromethyl-benzyl)-4-methyl-2,6-dioxo-3,6-dihydro-2H-pyrimidin-1-yl]-1-phenyl-ethylamino)-butyric acid sodium salt]	No clinically significant vital signs, ECG or laboratory measurements were observed	No clinically significant vital signs, ECG or laboratory measurements were observed	2.2	1.8	
CC(=O)N1CCN(c2ccc(OCC3COC(Cn4ccnc4)(c4ccc(Cl)cc4Cl)O3)cc2)CC1 (centres unmarked) [ketoconazole, Ketoconazole, reference compound]					82
